Converted amounts (≈) assume the structure as drawn.
Key:
NB4 cell line = experiment: leukemia cell growth inhibition, MTT; type: cell-based; conditions: Homo sapiens, NB-4; for inhibition at 16 µg/mL: NB4, 16 μg/mL compound, 72 h, read-out: IR (cell proliferation inhibition rate); for IC50: NB4, 72 h
Summary of the method: (§1)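 Proliferation inhibition rates derive from MTT-measured viability, normalised so the compound-free group equals 0%. Exposure lasted 72 hours at 37° C, 5% CO2, starting from 6000 cells/well in serum-supplemented (10% FBS) 1640 medium.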

Kasumi-1 cell line = experiment: leukemia cell growth inhibition, MTT; type: cell-based; conditions: Homo sapiens; for inhibition at 16 µg/mL: Kasumi-1, 16 μg/mL compound, 72 h, read-out: IR (cell proliferation inhibition rate); for IC50: Kasumi-1, 72 h
Summary of the method: as §1

Jurkat cell line = experiment: leukemia cell growth inhibition, MTT; type: cell-based; conditions: Homo sapiens, 72 h; for inhibition at 16 µg/mL: 16 μg/mL compound, read-out: IR (cell proliferation inhibition rate)
Summary of the method: as §1

H9 cell line = experiment: leukemia cell growth inhibition, MTT; type: cell-based; conditions: Homo sapiens; for IC50: H9, 72 h; for inhibition at 16 µg/mL: H9, 16 μg/mL compound, 72 h, read-out: IR (cell proliferation inhibition rate)
Summary of the method: as §1

K562/adr cell line = experiment: leukemia cell growth inhibition, MTT; type: cell-based; conditions: Homo sapiens, 72 h; for IC50: K562/Adr; for inhibition at 16 µg/mL: K562/adr, 16 μg/mL compound, read-out: IR (cell proliferation inhibition rate)
Summary of the method: as §1

RPMI8226 cell line = experiment: multiple myeloma cell growth inhibition, MTT; type: cell-based; conditions: Homo sapiens, RPMI-8226; for inhibition at 16 µg/mL: RPMI8226, 16 μg/mL compound, 72 h, read-out: IR (cell proliferation inhibition rate); for IC50: RPMI8226, 72 h
Summary of the method: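 Viability was measured by MTT after a 72 h compound exposure (37° C, 5% CO2) of RPMI8226 myeloma cells seeded at 6000 per well in 1640 medium with 10% fetal bovine serum. Growth inhibition was expressed relative to untreated cells, taken as 0%.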

Hep G2 cell line = experiment: solid tumor cell growth inhibition, MTT; type: cell-based, human; conditions: Homo sapiens; for inhibition at 16 µg/mL: HepG2, 72 h, Hep G2, 16 μg/mL compound, 72 h, read-out: IR (cell proliferation inhibition rate); for IC50: HepG2, Hep G2, 72 h
Summary of the method: (§2)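 DMEM high glucose, 10% FBS, 4000 cells per well. 24 h at 37° C/5% CO2 before dosing, 72 h with compound. MTT end-point, inhibition normalized to untreated control at 0%.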

PC-3 cell line = experiment: solid tumor cell growth inhibition, MTT; type: cell-based; conditions: Homo sapiens; for IC50: PC-3, 72 h; for inhibition at 16 µg/mL: PC-3, 16 μg/mL compound, 72 h, read-out: IR (cell proliferation inhibition rate)
Summary of the method: as §2

Becap37 cell line = experiment: solid tumor cell growth inhibition, MTT; type: cell-based; conditions: Homo sapiens; for inhibition at 16 µg/mL: Becap37, 16 μg/mL compound, 72 h, read-out: IR (cell proliferation inhibition rate); for IC50: Becap37, 72 h
Summary of the method: as §2

A549 cell line = experiment: solid tumor cell growth inhibition, MTT; type: cell-based; conditions: Homo sapiens; for IC50: A549, 72 h; for inhibition at 16 µg/mL: A549, 16 μg/mL compound, 72 h, read-out: IR (cell proliferation inhibition rate)
Summary of the method: as §2

Hep-2 cell line = experiment: solid tumor cell growth inhibition, MTT; type: cell-based; conditions: Homo sapiens; for IC50: HEp-2, 72 h; for inhibition at 16 µg/mL: Hep-2, 16 μg/mL compound, 72 h, read-out: IR (cell proliferation inhibition rate)
Summary of the method: as §2

Hela cell line = experiment: solid tumor cell growth inhibition, MTT; type: cell-based; conditions: Homo sapiens, 72 h; for IC50: HeLa; for inhibition at 16 µg/mL: Hela, 16 μg/mL compound, read-out: IR (cell proliferation inhibition rate)
Summary of the method: as §2

PANC-1 cell line = experiment: solid tumor cell growth inhibition, MTT; type: cell-based; conditions: Homo sapiens; for IC50: PANC-1, 72 h; for inhibition at 16 µg/mL: PANC-1, 16 μg/mL compound, 72 h, read-out: IR (cell proliferation inhibition rate)
Summary of the method: as §2

MGC 803 cell line = experiment: solid tumor cell growth inhibition, MTT; type: cell-based; conditions: Homo sapiens; for inhibition at 16 µg/mL: MGC 803, 16 μg/mL compound, 72 h, read-out: IR (cell proliferation inhibition rate); for IC50: MGC 803, 72 h
Summary of the method: as §2

MG-63 cell line = experiment: solid tumor cell growth inhibition, MTT; type: cell-based; conditions: Homo sapiens; for IC50: MG-63, 72 h; for inhibition at 16 µg/mL: MG-63, 16 μg/mL compound, 72 h, read-out: IR (cell proliferation inhibition rate)
Summary of the method: as §2

CNE cell line = experiment: solid tumor cell growth inhibition, MTT; type: cell-based; conditions: Homo sapiens, 72 h; for inhibition at 16 µg/mL: 16 μg/mL compound, read-out: IR (cell proliferation inhibition rate)
Summary of the method: as §2

SK-OV-3 cell line = experiment: solid tumor cell growth inhibition, MTT; type: cell-based; conditions: Homo sapiens; for IC50: SK-OV-3, 72 h; for inhibition at 16 µg/mL: SK-OV-3, 16 μg/mL compound, 72 h, read-out: IR (cell proliferation inhibition rate)
Summary of the method: as §2

U87 MG cell line = experiment: solid tumor cell growth inhibition, MTT; type: cell-based; conditions: Homo sapiens, U-87 MG, 72 h; for inhibition at 16 µg/mL: 16 μg/mL compound, read-out: IR (cell proliferation inhibition rate)
Summary of the method: as §2

CaES-17 cell line = experiment: solid tumor cell growth inhibition, MTT; type: cell-based; conditions: Homo sapiens, CaEs17; for inhibition at 16 µg/mL: CaES-17, 16 μg/mL compound, 72 h, read-out: IR (cell proliferation inhibition rate); for IC50: CaES-17, 72 h
Summary of the method: as §2

RKO cell line = experiment: solid tumor cell growth inhibition, MTT; type: cell-based; conditions: Homo sapiens, 72 h; for inhibition at 16 µg/mL: 16 μg/mL compound, read-out: IR (cell proliferation inhibition rate)
Summary of the method: as §2

SMILES	inhibition at 16 µg/mL (NB4 cell line) [%]	IC50 (NB4 cell line) [µg/mL]	inhibition at 16 µg/mL (Kasumi-1 cell line) [%]	IC50 (Kasumi-1 cell line) [µg/mL]	inhibition at 16 µg/mL (Jurkat cell line) [%]	IC50 (Jurkat cell line) [µg/mL]	IC50 (H9 cell line) [µg/mL]	inhibition at 16 µg/mL (H9 cell line) [%]	IC50 (K562/adr cell line) [µg/mL]	inhibition at 16 µg/mL (K562/adr cell line) [%]	inhibition at 16 µg/mL (RPMI8226 cell line) [%]	IC50 (RPMI8226 cell line) [µg/mL]	inhibition at 16 µg/mL (Hep G2 cell line) [%]	IC50 (Hep G2 cell line) [µg/mL]	IC50 (PC-3 cell line) [µg/mL]	inhibition at 16 µg/mL (PC-3 cell line) [%]	inhibition at 16 µg/mL (Becap37 cell line) [%]	IC50 (Becap37 cell line) [µg/mL]	IC50 (A549 cell line) [µg/mL]	inhibition at 16 µg/mL (A549 cell line) [%]	further results
COC(=O)[C@]12CCC(C)(C)CC1C1=CCC3[C@@]4(C)CC(C(=O)NCCCN5CCCC5)C(=O)C(C)(C)C4CC[C@@]3(C)[C@]1(C)CC2 (stereo partly drawn) [BS-OA-016]	99.8	2.94 (≈ 4.72 µM)	99.1	3.76 (≈ 6.04 µM)	95.1	2.38 (≈ 3.82 µM)	2.96 (≈ 4.75 µM)	95.4	0.52 (≈ 0.835 µM)	97.8	99	1.15 (≈ 1.85 µM)	> 96	2.58 (≈ 4.14 µM)	5.06 (≈ 8.12 µM)	99.8	99.5	5.12 (≈ 8.22 µM)	2.45 (≈ 3.93 µM)	96.8	IC50 (Hep-2 cell line): 5.85 µg/mL (≈ 9.39 µM); inhibition at 16 µg/mL (Hep-2 cell line): 97.2%; IC50 (Hela cell line): 3.78 µg/mL (≈ 6.07 µM); inhibition at 16 µg/mL (Hela cell line): 98%; IC50 (PANC-1 cell line): 4.38 µg/mL (≈ 7.03 µM); inhibition at 16 µg/mL (PANC-1 cell line): 98.5%; inhibition at 16 µg/mL (MGC 803 cell line): 99.1%; IC50 (MGC 803 cell line): 3 µg/mL (≈ 4.82 µM); IC50 (MG-63 cell line): 4.35 µg/mL (≈ 6.98 µM); inhibition at 16 µg/mL (MG-63 cell line): 100%; inhibition at 16 µg/mL (CNE cell line): 99.4%; IC50 (CNE cell line): 4.07 µg/mL (≈ 6.53 µM); IC50 (SK-OV-3 cell line): 5.04 µg/mL (≈ 8.09 µM); inhibition at 16 µg/mL (SK-OV-3 cell line): 99.5%; inhibition at 16 µg/mL (U87 MG cell line): 100%; IC50 (U87 MG cell line): 2.45 µg/mL (≈ 3.93 µM); inhibition at 16 µg/mL (CaES-17 cell line): 99.4%; IC50 (CaES-17 cell line): 3.93 µg/mL (≈ 6.31 µM); inhibition at 16 µg/mL (RKO cell line): 99.4%; IC50 (RKO cell line): 3.33 µg/mL (≈ 5.35 µM)
COCCCNC(=O)C1C[C@]2(C)[C@H]3CC=C4[C@@H]5CC(C)(C)CC[C@]5(C(=O)OC)CC[C@@]4(C)[C@]3(C)CC[C@H]2C(C)(C)C1=O (stereo partly drawn) [BS-OA-052]	46.7	16 (≈ 27.4 µM)	19	> 16	-5	> 16	> 16	38	12.3 (≈ 21 µM)	64	25.2	> 16	10	> 16	> 16	25.4	-12	> 16	> 16	3.1	IC50 (Hep-2 cell line): > 16 µg/mL; inhibition at 16 µg/mL (Hep-2 cell line): -11.3%; IC50 (Hela cell line): > 16 µg/mL; inhibition at 16 µg/mL (Hela cell line): 25.6%; IC50 (PANC-1 cell line): > 16 µg/mL; inhibition at 16 µg/mL (PANC-1 cell line): 8.4%; inhibition at 16 µg/mL (MGC 803 cell line): -12.7%; IC50 (MGC 803 cell line): > 16 µg/mL; IC50 (MG-63 cell line): > 16 µg/mL; inhibition at 16 µg/mL (MG-63 cell line): -33.5%; inhibition at 16 µg/mL (CNE cell line): 9.9%; IC50 (CNE cell line): > 16 µg/mL; IC50 (SK-OV-3 cell line): > 16 µg/mL; inhibition at 16 µg/mL (SK-OV-3 cell line): 29.5%; inhibition at 16 µg/mL (U87 MG cell line): 10.9%; IC50 (U87 MG cell line): > 16 µg/mL; inhibition at 16 µg/mL (CaES-17 cell line): -8%; IC50 (CaES-17 cell line): > 16 µg/mL; inhibition at 16 µg/mL (RKO cell line): -48.6%; IC50 (RKO cell line): > 16 µg/mL
CC1(C)CC[C@]2(C(=O)O)CC[C@]3(C)C(=CC[C@@H]4[C@@]5(C)CC(C(=O)NCCN6CCCC6)C(=O)C(C)(C)[C@@H]5CC[C@]43C)[C@@H]2C1 (stereo partly drawn) [BS-OA-105]	74.7	10.6 (≈ 17.8 µM)	36.6	> 16	37.5	> 16	> 16	31.5	6.52 (≈ 11 µM)	85	81.8	10.5 (≈ 17.7 µM)	29.5	> 16	> 16	18.4	43.7	> 16	> 16	24	IC50 (Hep-2 cell line): > 16 µg/mL; inhibition at 16 µg/mL (Hep-2 cell line): 28.4%; IC50 (Hela cell line): 7.29 µg/mL (≈ 12.3 µM); inhibition at 16 µg/mL (Hela cell line): 68.1%; IC50 (PANC-1 cell line): > 16 µg/mL; inhibition at 16 µg/mL (PANC-1 cell line): 16.9%; inhibition at 16 µg/mL (MGC 803 cell line): 29.2%; IC50 (MGC 803 cell line): > 16 µg/mL; IC50 (MG-63 cell line): 12.6 µg/mL (≈ 21.1 µM); inhibition at 16 µg/mL (MG-63 cell line): 54.6%; inhibition at 16 µg/mL (CNE cell line): 54.5%; IC50 (CNE cell line): 10.6 µg/mL (≈ 17.8 µM); IC50 (SK-OV-3 cell line): > 16 µg/mL; inhibition at 16 µg/mL (SK-OV-3 cell line): 5%; inhibition at 16 µg/mL (U87 MG cell line): 61.7%; IC50 (U87 MG cell line): 2.31 µg/mL (≈ 3.88 µM); inhibition at 16 µg/mL (CaES-17 cell line): 45%; IC50 (CaES-17 cell line): 18.9 µg/mL (≈ 31.7 µM); inhibition at 16 µg/mL (RKO cell line): 8.6%; IC50 (RKO cell line): > 16 µg/mL

— patent US9156801B2, “2-substituted oleanolic acid derivative, method preparing for same, and application thereof” (HANGZHOU BENSHENG PHARMACEUTICAL CO., LTD., priority 2011, dated 2015)
